Measured values from PubChem BioAssay (NCI).
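How tested: cells in 96-well plates exposed to compound for 48 hours at five concentrations. Here, GI50 denotes the concentration required for 50% inhibition of growth. TGI: total growth inhibition.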

How the values were obtained:
Experiment in all cases: growth of human tumour cells (NCI), 48 h; in the data active means GI50 below about 0.43 µM; inactive means the rest
CCRF-CEM leukemia = tested on: CCRF-CEM leukemia
HS 578T breast = tested on: HS 578T breast
ACHN renal = tested on: ACHN renal
SF-268 CNS = tested on: SF-268 CNS
KM12 colon = tested on: KM12 colon
MALME-3M melanoma = tested on: MALME-3M melanoma
SR leukemia = tested on: SR leukemia
UACC-257 melanoma = tested on: UACC-257 melanoma
HCT-15 colon = tested on: HCT-15 colon
MCF7 breast = tested on: MCF7 breast
RXF 393 renal = tested on: RXF 393 renal
OVCAR-4 ovarian = tested on: OVCAR-4 ovarian
RPMI-8226 leukemia = tested on: RPMI-8226 leukemia
HOP-92 NSCLC = tested on: HOP-92 NSCLC
NCI-H522 lung = tested on: NCI-H522 lung
BT-549 breast = tested on: BT-549 breast
HCT-116 colon = tested on: HCT-116 colon
SF-295 CNS = tested on: SF-295 CNS
A549 NSCLC = tested on: A549 NSCLC
SNB-75 CNS = tested on: SNB-75 CNS
SK-MEL-2 melanoma = tested on: SK-MEL-2 melanoma
NCI-H460 lung = tested on: NCI-H460 lung
SK-OV-3 ovarian = tested on: SK-OV-3 ovarian
M14 melanoma = tested on: M14 melanoma
786-0 renal = tested on: 786-0 renal
SW-620 colon = tested on: SW-620 colon
TK-10 renal = tested on: TK-10 renal
SK-MEL-5 melanoma = tested on: SK-MEL-5 melanoma
COLO 205 colon = tested on: COLO 205 colon
HT29 colon = tested on: HT29 colon
HL-60(TB) leukemia = tested on: HL-60(TB) leukemia
OVCAR-8 ovarian = tested on: OVCAR-8 ovarian
OVCAR-5 ovarian = tested on: OVCAR-5 ovarian
PC-3 prostate = tested on: PC-3 prostate
MDA-MB-231 breast = tested on: MDA-MB-231 breast
SNB-19 CNS = tested on: SNB-19 CNS
NCI-H226 lung = tested on: NCI-H226 lung
MDA-MB-435 = tested on: MDA-MB-435
HOP-62 NSCLC = tested on: HOP-62 NSCLC
U251 CNS = tested on: U251 CNS
SF-539 CNS = tested on: SF-539 CNS
IGROV1 ovarian = tested on: IGROV1 ovarian
SK-MEL-28 melanoma = tested on: SK-MEL-28 melanoma
K-562 leukemia = tested on: K-562 leukemia
T-47D breast = tested on: T-47D breast
CAKI-1 renal = tested on: CAKI-1 renal
HCC-2998 colon = tested on: HCC-2998 colon
OVCAR-3 ovarian = tested on: OVCAR-3 ovarian
UACC-62 melanoma = tested on: UACC-62 melanoma
SN12C renal = tested on: SN12C renal
LOX IMVI melanoma = tested on: LOX IMVI melanoma
NCI-H23 lung = tested on: NCI-H23 lung
DU-145 prostate = tested on: DU-145 prostate
MOLT-4 leukemia = tested on: MOLT-4 leukemia

Nc1c(C(=O)Nc2ccccn2)sc2nc3c(cc12)CCCCC3
4.86 µM: TGI (RXF 393 renal)
> 50 µM: TGI (CCRF-CEM leukemia) | TGI (HS 578T breast) | TGI (ACHN renal) | TGI (SF-268 CNS) | TGI (KM12 colon) | TGI (MALME-3M melanoma) | TGI (SR leukemia) | TGI (UACC-257 melanoma) | TGI (HCT-15 colon) | TGI (MCF7 breast) | TGI (OVCAR-4 ovarian) | TGI (RPMI-8226 leukemia) | TGI (HOP-92 NSCLC) | TGI (NCI-H522 lung) | TGI (BT-549 breast) | TGI (HCT-116 colon) | TGI (SF-295 CNS) | TGI (A549 NSCLC) | TGI (SNB-75 CNS) | TGI (SK-MEL-2 melanoma) | TGI (NCI-H460 lung) | TGI (SK-OV-3 ovarian) | TGI (M14 melanoma) | TGI (786-0 renal) | TGI (SW-620 colon) | TGI (TK-10 renal) | TGI (SK-MEL-5 melanoma) | TGI (COLO 205 colon) | TGI (HT29 colon) | TGI (HL-60(TB) leukemia) | TGI (OVCAR-8 ovarian) | TGI (OVCAR-5 ovarian) | TGI (PC-3 prostate) | TGI (MDA-MB-231 breast) | TGI (SNB-19 CNS) | TGI (NCI-H226 lung) | TGI (MDA-MB-435) | TGI (HOP-62 NSCLC) | TGI (U251 CNS) | TGI (SF-539 CNS) | TGI (IGROV1 ovarian) | TGI (SK-MEL-28 melanoma) | TGI (K-562 leukemia) | TGI (T-47D breast) | TGI (CAKI-1 renal) | TGI (HCC-2998 colon) | TGI (OVCAR-3 ovarian) | TGI (UACC-62 melanoma) | TGI (SN12C renal) | TGI (LOX IMVI melanoma) | TGI (NCI-H23 lung) | TGI (DU-145 prostate) | TGI (MOLT-4 leukemia)
active: GI50 (MDA-MB-435) 0.25 µM
inactive: GI50 (CCRF-CEM leukemia) 1.91 µM | GI50 (HS 578T breast) 2.74 µM | GI50 (ACHN renal) 2.71 µM | GI50 (SF-268 CNS) 4.89 µM | GI50 (KM12 colon) 1.95 µM | GI50 (MALME-3M melanoma) 34.3 µM | GI50 (SR leukemia) 0.521 µM | GI50 (UACC-257 melanoma) > 50 µM | GI50 (HCT-15 colon) 1.38 µM | GI50 (MCF7 breast) 0.851 µM | GI50 (RXF 393 renal) 1.4 µM | GI50 (OVCAR-4 ovarian) 4.09 µM | GI50 (RPMI-8226 leukemia) 1.98 µM | GI50 (HOP-92 NSCLC) 27.9 µM | GI50 (NCI-H522 lung) 2.11 µM | GI50 (BT-549 breast) 2.36 µM | GI50 (HCT-116 colon) 1.77 µM | GI50 (SF-295 CNS) 1.56 µM | GI50 (A549 NSCLC) 2.47 µM | GI50 (SNB-75 CNS) 2.35 µM | GI50 (SK-MEL-2 melanoma) 2.08 µM | GI50 (NCI-H460 lung) 1.83 µM | GI50 (SK-OV-3 ovarian) 2.14 µM | GI50 (M14 melanoma) 1.26 µM | GI50 (786-0 renal) 1.78 µM | GI50 (SW-620 colon) 3.19 µM | GI50 (TK-10 renal) 4.98 µM | GI50 (SK-MEL-5 melanoma) 2.13 µM | GI50 (COLO 205 colon) 1.42 µM | GI50 (HT29 colon) 1.75 µM | GI50 (HL-60(TB) leukemia) 1.34 µM | GI50 (OVCAR-8 ovarian) 2.87 µM | GI50 (OVCAR-5 ovarian) 3.8 µM | GI50 (PC-3 prostate) 2.59 µM | GI50 (MDA-MB-231 breast) 3.83 µM | GI50 (SNB-19 CNS) 2.77 µM | GI50 (NCI-H226 lung) 2.6 µM | GI50 (HOP-62 NSCLC) 3.46 µM | GI50 (U251 CNS) 2.64 µM | GI50 (SF-539 CNS) 1.39 µM | GI50 (IGROV1 ovarian) 3.58 µM | GI50 (SK-MEL-28 melanoma) 6.23 µM | GI50 (K-562 leukemia) 0.987 µM | GI50 (T-47D breast) 1.79 µM | GI50 (CAKI-1 renal) 3.51 µM | GI50 (HCC-2998 colon) 2.37 µM | GI50 (OVCAR-3 ovarian) 1.63 µM | GI50 (UACC-62 melanoma) 3.06 µM | GI50 (SN12C renal) 3.59 µM | GI50 (LOX IMVI melanoma) 9.56 µM | GI50 (NCI-H23 lung) 2.19 µM | GI50 (DU-145 prostate) 1.88 µM | GI50 (MOLT-4 leukemia) 2.32 µM
